Test results taken from US7838005B2, “Treatment of insulin resistance by administering an acid-sensing ion channel 3 inhibitor” (priority 2007, dated 2010).

How the values were obtained:
aging ASIC3+/+ mice [1] = test: Insulin tolerance test (ITT) with ASIC3 blockers in aging mice; assay type: in vivo; details: salicylic acid 14 mg/kg or APETx2 0.23 mg/kg injected intraperitoneally with insulin 0.5 mU/g
Experimental: (§1) ASIC3−/− mice were generated as described in Chen et al., Proc. Natl. Acad. Sci. USA 99, 8992-8997, 2002. Congenic 129 mice were derived from breeding ASIC3 chimera with female 129S2/SvPasCrl wild type mice. All mice were raised in a 12:12-h light-dark cycle at 25° C. and 40% to 70% humidity. All experiments involved use of female mice in different age groups. The animals were bred in a specific pathogen-free facility and cared for in accordance with the Guide for the Use of Laboratory Animals (National Academy Press, Washington D.C.). The experimental protocol was approved by the animal use committee of Academia Sinica.
(§2) Mice of 9, 16, or 25 weeks old were tested for glucose tolerance (GTT) and those of 18 or 27 weeks old for insulin tolerance (ITT). For GTT, the mice fasted overnight then were injected with glucose intraperitoneally at 1.5 mg/g body weight. For ITT, the mice were given free access to food and injected with insulin intraperitoneally at 0.5 mU/g body weight. The glucose levels were measured in blood withdrawn from the tail vein. To study effects of ASIC3 blockers, salicylic acid (14 mg/kg) or APETx2 (0.23 mg/kg) were injected with glucose or insulin intraperitoneally.
(§3) To test whether ASIC3 selective blockers could reverse age-dependent glucose intolerance and insulin resistance, we tested the effects of salicylic acid and APETx2 in the aging mouse groups. […]

aging ASIC3+/+ mice [2] = test: Glucose tolerance test (GTT) with ASIC3 blockers in aging mice; assay type: in vivo; details: salicylic acid 14 mg/kg or APETx2 0.23 mg/kg injected intraperitoneally with glucose 1.5 mg/g after overnight fast
Experimental: as §1, §2, §3

WAT-expressed ASIC3 = biological target: T1, WAT-expressed ASIC3 (Mus musculus, UniProt Q6X1Y6); test: Whole-cell patch recording of acid-evoked currents in cultured SVF adipose cells; assay type: cell-based; details: pH 5.0 evoked currents, SVF adipose cells from mice 8 to 10 weeks old, voltage-clamp
T1 construct: Whole cell recordings were made of primary culture adipose cells; endogenous in cells; host or cells: primary stromal-vascular fraction (SVF) adipose cells from periovarian white adipose tissue of female mice
T1 sequence (Q6X1Y6 1-530): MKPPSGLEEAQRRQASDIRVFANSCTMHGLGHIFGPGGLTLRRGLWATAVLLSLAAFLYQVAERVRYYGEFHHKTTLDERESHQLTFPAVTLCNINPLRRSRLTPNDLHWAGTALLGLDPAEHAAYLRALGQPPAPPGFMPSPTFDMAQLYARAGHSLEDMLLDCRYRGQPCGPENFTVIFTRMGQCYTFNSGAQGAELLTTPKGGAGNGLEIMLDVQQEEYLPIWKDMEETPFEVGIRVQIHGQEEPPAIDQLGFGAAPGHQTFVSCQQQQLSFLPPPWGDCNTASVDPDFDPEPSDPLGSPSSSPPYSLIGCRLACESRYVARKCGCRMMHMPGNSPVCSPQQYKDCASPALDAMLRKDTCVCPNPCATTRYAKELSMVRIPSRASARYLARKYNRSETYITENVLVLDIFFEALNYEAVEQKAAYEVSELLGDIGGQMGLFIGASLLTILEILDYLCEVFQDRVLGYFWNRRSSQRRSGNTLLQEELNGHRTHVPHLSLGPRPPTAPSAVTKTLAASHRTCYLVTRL
Experimental: Fat pads of periovarian white adipose tissue (WAT) were isolated from female mice. One gram of the isolated fat pad was digested with 2 mg/ml of collagenase type VIII (Sigma) in 4 ml Dulbecco's modified Eagle's medium (DMEM) at 37° C. for 1 hour. Then, the digested tissues were centrifuged at 200×g for 5 minutes at 4° C. The supernatant, which contains mature adipocytes, was collected for RNA isolation. The cell pellet, the stromal-vascular fraction (SVF), consisted of mesenchynal cells (adipoblasts) and immature adipocytes (adipocyte precursors and postadipocytes) (Van, The adipocyte precusor cell. In: New perspectives in adipose tissue:structure, function, and development. Butterworths, Borough Green, England, chapt. 15, 353-382, 1985). The SVFs were collected for RNA isolation or re-suspended for cell culture in DMEM containing 10% fetal calf serum and antibiotics. SVF cells were plated at a concentration of 10^5 cells per glass cover slide (12 mm in diameter) and maintained at 37° C. in 5% humidified carbon dioxide. The cultured cells then underwent whole-cell patch recording in 5 days. […]
To determine whether WAT-expressed ASIC3 is functional, we applied whole-cell patch recording to examine the acid-evoked currents in cultured SVF cells isolated from mice 8 to 10 weeks old. […]

rodents = details: salicylate 120 mg/kg/day, continual treatment; cited from earlier work
IKKβ = biological target: T2, IKKβ (Mus musculus, UniProt O88351); details: salicylate 120 mg/kg/day, continual treatment, rodents; cited from earlier work
T2 construct: host or cells: rodents (in vivo)
T2 sequence (O88351 1-757): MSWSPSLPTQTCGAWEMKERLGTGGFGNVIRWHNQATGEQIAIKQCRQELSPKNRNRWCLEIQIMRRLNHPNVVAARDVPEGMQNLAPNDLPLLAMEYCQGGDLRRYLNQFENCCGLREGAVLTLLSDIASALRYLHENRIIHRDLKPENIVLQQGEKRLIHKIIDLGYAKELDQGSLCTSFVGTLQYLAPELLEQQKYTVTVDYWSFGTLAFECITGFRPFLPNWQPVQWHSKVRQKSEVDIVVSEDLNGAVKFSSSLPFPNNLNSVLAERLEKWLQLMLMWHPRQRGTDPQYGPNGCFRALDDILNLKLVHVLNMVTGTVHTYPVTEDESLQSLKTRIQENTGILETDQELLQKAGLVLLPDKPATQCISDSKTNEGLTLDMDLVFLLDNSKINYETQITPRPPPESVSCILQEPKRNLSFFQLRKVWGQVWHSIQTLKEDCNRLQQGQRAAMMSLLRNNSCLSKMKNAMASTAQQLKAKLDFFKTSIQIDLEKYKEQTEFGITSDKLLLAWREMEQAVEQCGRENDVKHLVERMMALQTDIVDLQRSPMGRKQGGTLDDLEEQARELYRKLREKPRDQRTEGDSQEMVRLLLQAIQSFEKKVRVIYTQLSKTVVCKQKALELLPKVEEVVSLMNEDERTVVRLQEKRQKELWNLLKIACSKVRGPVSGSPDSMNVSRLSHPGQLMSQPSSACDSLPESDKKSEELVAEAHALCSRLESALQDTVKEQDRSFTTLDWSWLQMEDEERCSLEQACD

Row | Molecule | effect on insulin tolerance test / insulin sensitivity (ITT) (aging ASIC3+/+ mice [1]) | effect on age-dependent glucose tolerance (GTT) (aging ASIC3+/+ mice [2]) | sensitivity of acid-induced inward currents to blocker (WAT-expressed ASIC3) | effect on obesity- and diet-induced insulin resistance (rodents) | effect on IKKβ activity (IKKβ)
1 | APETx2 | significantly enhance the insulin sensitivity | effectively reverse the age-dependent effect of glucose tolerance | sensitive |  | 
2 | O=C(O)c1ccccc1O [salicylic acid] | not affect insulin tolerance test | reverse in part the age-dependent effect of glucose tolerance | sensitive | reversed obesity- and diet-induced insulin resistance | disrupted IKKβ activity
